Entries after “also recorded” stand apart in the source; their conditions may differ. Where two headings read alike, the source gives them in different places.
How the values were obtained:
[1] = system: V. harveyi reporter strain BB170 (Sensor 1−, Sensor 2+); format: cell-based, Vibrio harveyi
Procedure: Cell-free culture fluids from E. coli, S. typhimurium and V. harveyi strains were tested for the presence of signaling substances that could induce luminescence in the V. harveyi reporter strain BB170 or BB886. […] Positive control wells contained 10 μl of cell-free culture fluid from strain V. harveyi BB152 (Autoinducer-1^−, Autoinducer-2^+) or V. harveyi BB120 (Autoinducer-1^+, Autoinducer-2^+). Negative control wells contained 10 μl of sterile growth medium. The microtiter dishes were shaken in a rotary shaker at 175 rpm at 30° C.
The cell density was measured by diluting the same aliquots of cells used for measuring luminescence, spreading the dilutions onto solid LM medium, incubating the plates overnight at 30° C., and counting the resulting colonies the following day. […] Cell-free culture supernatants from V. harveyi or S. typhimurium strains were added to a final concentration of 10% (v/v) at the time of the first measurement. In control experiments, 10% (v/v) of AB medium, LB medium or LB medium containing 0.5% glucose was added instead of cell-free culture fluids.

[2] = system: V. harveyi luxN, luxS double mutant reporter strain; experiment: Luminescence response of V. harveyi luxN, luxS double mutant reporter; format: cell-based, Vibrio harveyi; conditions: culture fluids of MM30 (AI-1) and BB152 (AI-2) as sources
Procedure: Verification that the luxN, luxS Double Mutant Responds to AI-2. […] This was verified in a luminescence assay for response to V. harveyi AI-1 and AI-2. V. harveyi strain MM30 (luxS::Tn5) that is phenotypically AI-1^+, AI-2^−, and V. harveyi strain BB152 (luxM::Tn5) that is phenotypically AI-1^−, AI-2^+ were used as the sources of AI-1 and AI-2 respectively. The AI-1 and AI-2 present in culture fluids of these strains was tested for stimulation of light production of the V. harveyi luxN, luxS double mutant reporter strain. In this assay, autoinducer preparations from MM30, BB152 or sterile medium controls were added to the wells of microtiter plates, followed by the addition of the V. harveyi reporter strain. The resulting light production was monitored using a liquid scintillation counter in the chemiluminescence mode. Maximal stimulation of light production in the V. harveyi luxN, luxS reporter strain was compared to that produced by the Sensor 1^+, Sensor 2^− V. harveyi strain BB886 and the Sensor 1^−, Sensor 2^+V. harveyi strain BB170. These two V. harveyi strains are routinely used in this assay as reporters of AI-1 and AI-2 activity respectively.

[3] = system: lsr operon (lsr-lacZ fusions); experiment: β-galactosidase assay of lsr::MudJ (lacZ) fusions; format: cell-based, S. typhimurium
Procedure: Various S. typhimurium lsr::MudJ fusion strains were grown to late exponential phase in LB medium supplemented with AI-2 prepared by our in vitro method at an approximate concentration of 70 μM. This is roughly twice the concentration of AT-2 that we estimate to be present in S. typhimurium cell-free supernatants (not shown). As a control, we performed the same experiment with material from in vitro reactions carried out with SAH and Pfs enzyme in the absence of the LuxS enzyme. This reaction produces adenine and SRH. Homocysteine was added to this control mixture following the reaction to compensate for the homocysteine that would be produced by LuxS. Therefore, the only component absent from the control reaction was AI-2.
Cultures of S. typhimurium that had been grown overnight were diluted 1:100 into fresh LB and grown for 4 hours. For strains containing plasmids, cultures were diluted in LB supplemented with Amp. When necessary, AI-2 was synthesized in vitro and added to the growth media at the time of inoculation (Schauder et al., 2001). Cells from 1 ml of these cultures were harvested and resuspended in 1 ml Z buffer. P-galactosidase assays were performed using a microtitre plate assay, as described (Slauch and Silhavy, 1991). β-galactosidase units were calculated as (0.1*mOD420/min)/[OD600 of cells*Volume (ml)]. All assays were performed in triplicate.

metE-lacZ fusion = metE-lacZ fusion transcription; format: cell-based, S. typhimurium
Procedure: The insertion sites of the eight luxS regulated MudJ fusions were determined by arbitrary PCR amplification of the MudJ-chromosome fusion junctions, followed by BLAST database analysis (Caetano-Anolles, 1993; Altschul et al., 1990). One MudJ insertion was located in the metE gene. MetE is involved in the biosynthesis of methionine, that is a precursor of SAM (Weissbach and Brot, 1991). Specifically, MetE catalyzes the final step in methionine biosynthesis in the absence of vitamin B12. Transcription of metE is induced when the substrate homocysteine is available and when the intracellular concentration of methionine is low (Urbanowski and Stauffer, 1989). We reason that metE is not a true target of AI-2 regulation, but instead metE transcription is induced in the wild type luxS strain relative to the luxS null strain because homocysteine is produced during the generation of AI-2 in the LuxS^+ strain.

rck::MudJ fusion (SdiA) = experiment: SdiA regulated rck::MudJ fusion assay; format: cell-based; conditions: AI-2 from E. coli or S. typhimurium; sdiA+ and sdiA− backgrounds
Procedure: For ftsQ regulation in E. coli, the plasmids pMS207 and pMS209 were transformed into E. coli strain MC4100 (Silhavy et al., 1984, supra), and the transformants were grown overnight in LB containing 100 mg/L ampicillin at 30° C. with aeration. For rck regulation, S. typhimurium strains BA1105 (rck::MudJ) and BA1305 (rck::MudJ sdiA) were grown overnight in LB containing 100 mg/L kanamycin at 30° C. with aeration. The overnight cultures were diluted 20-fold into fresh medium and grown for an additional 4.5 h. At this time, each culture was divided into five identical aliquots and 10% (v/v) of one of the following was added to each aliquot: LB, 0.4 M NaCl, […] osmotic shock fluids from S. typhimurium LT2, E. coli O157 or E. coli strain DH5 (negative control). The osmotic shock fluids were prepared as described above, following pregrowth of the S. typhimurium LT2 and E. coli in LB containing 0.5% glucose for 6h. The cell suspensions were incubated at 30° C. for 2 h, after which standard -galactosidase reactions were performed on the samples (Miller, A Short Course in Bacterial Genetics, Cold Spring Harbor Laboratory Press, 1992).

[4] = Stability characterisation of the signaling activity; format: physicochemical
[5] = S. typhimurium cell-free spent culture fluids; cited from earlier work

SMILES: CC(=O)C(=O)C(O)CO (stereo not shown) [AI-2, 4,5-dihydroxy-2,3-pentanedione]
- signaling activity degraded ([1]; 0.4 M NaCl shock fluid activity incubated 2 h with S. typhimurium cells pre-incubated in 0.1 M NaCl): greater than 98%
- input AI-2 activity (induction of V. harveyi bioluminescence reporter) ([1]; in vitro prepared AI-2 added to S. typhimurium culture, chilled immediately): 1000 fold
- stimulation in light production in the bioassay ([1]; in vitro reaction: dialyzed LuxS− cell extract + SAM + LuxS protein, MW<5000 filtrate): over 500 fold
- stimulation of light production by exogenous autoinducer [2]: stimulated to produce light
- expression of the lsr-lacZ fusions ([3]; strains lacking luxS, 70 μM exogenous AI-2): induces the expression of the lsr-lacZ fusions to levels above that when wild type luxS is present
- expression of the lsr-lacZ fusions ([3]; wild type luxS strains, exogenous AI-2 added): additional stimulation of the expression of the lsr-lacZ fusions
- effect of exogenous AI-2 on transcription of the metE-lacZ fusion (metE-lacZ fusion): did not affect the transcription of the metE-lacZ fusion
- change in β-galactosidase production of rck::MudJ (rck::MudJ fusion (SdiA)): No change
- heat resistance of the activity [4]: heat resistant to about 80 but not 100 °C
- stability of the activity to acid and base [4]: acid stable and base labile
- time the activity is stable in cell-free fluids ([4]; cell-free culture supernatants and 0.4 M NaCl osmotic shock fluids, 30 °C): at least 24 h
- heat resistance of the activity ([4]; listed as signaling activity): heat resistant to 80 but not 100 °C
- stability of the activity to acid and base ([4]; listed as signaling activity): acid stabile and base labile
- heat resistance of the activity ([4]; listed as signaling compound): heat resistant to 80 °C but not 100 °C
- stability of the activity to acid and base ([4]; listed as signaling compound): acid stable and base labile
- stability of AI-2 in cell-free culture fluids [5]: stable for long periods of time; also recorded: remains active for long periods of time

Source: US7183099B2, “Inhibitors of autoinducer transporters” (Princeton University, priority 2001, dated 2007)
